Test results reported in patent US12414569B2 (priority 2019, dated 2025).

Conditions: Citrus sinensis

SMILES | Distance Traveled
Cc1nnc(C)s1 [2,5-Dimethyl-1,3,4-thiadiazole] | 14 cm
O=CC=Cc1ccccc1 [Cinnamaldehyde] | 12 cm
C=CCSSSCC=C [Diallyl Trisulfide] | 26 cm
C=CCSSCC=C [Diallyl disulfide] | 24 cm
